≈ marks a conversion by molar mass, not a printed value.
Experiments:
[1] = test system: clinical isolates carrying AAC(3)-IV; assay: MIC broth microdilution, AAC(3)-IV; assay type: cell-based
From the text: (§1) Minimal inhibitory concentrations (MIC) have been determined by broth microdilution assays (CLSI. Methods for Dilution Antimicrobial Susceptibility Tests for Bacteria That Grow Aerobically; Approved Standard—Tenth Edition. CLSI document M07-A10. Wayne, Pa.: Clinical and Laboratory Standards Institute; 2015.).
(§2) Minimal inhibitory concentrations (MICs, […]) against clinical isolates from Institute of Medical Microbiology, Univ. Zurich, and the IC50 values for bacterial, human mitochondrial and human cytosolic ribosomes are indicated.
(§3) Minimal inhibitory concentrations (μg/ml) against clinical isolates from Institute of Medical Microbiology, Univ. Zurich, and the IC50 values for bacterial, human mitochondrial and human cytosolic ribosomes are indicated.
(§4) The Minimal inhibitory concentrations (MICs, μg/ml) against clinical isolates from Institute of Medical Microbiology, Univ Zurich, and the IC50 values for bacterial, human mitochondrial and human cytosolic ribosomes are indicated.

[2] = test system: clinical isolates carrying APH(3′)-I; assay: MIC broth microdilution, APH(3′)-I; assay type: cell-based; details: IMM Univ. Zurich
From the text: as §1, §2

[3] = test system: clinical isolates carrying APH(3′)-II; assay: MIC broth microdilution, APH(3′)-II; assay type: cell-based; details: clinical isolates, IMM Univ. Zurich; APH(3′)-II; read-out: MIC APH(3′)-II
From the text: as §1, §2

[4] = test system: clinical isolates carrying APH(3′)-VI; assay: MIC broth microdilution, APH(3′)-VI; assay type: cell-based; details: IMM Univ. Zurich
From the text: as §1, §2

bacterial ribosomes = assay: in-vitro translation assay, bacterial ribosomes; assay type: biochemical
From the text: (§5) IC50 values for bacterial, human chimeric, and rabbit reticulocyte ribosomes have been determined by in-vitro translation assays as described previously (Proc. Nat. Ac. Sci USA 2012, 109(27):10984-10989).
as §2

[5] = test system: human mitochondrial ribosomes; assay: in-vitro translation assay, human mitochondrial (human chimeric) ribosomes; assay type: biochemical
From the text: as §5, §2

[6] = test system: human cytosolic ribosomes; assay: in-vitro translation assay, human cytosolic ribosomes; assay type: biochemical
From the text: as §5, §2

[7] = test system: AG212, Escherichia coli ATCC25922; assay: MIC reference strain AG212; assay type: cell-based; details: reference strain ATCC25922
From the text: as §1
(§6) Table 4 and 5 show the antibacterial activity of the compounds of the invention against bacterial reference strains (table 4) and against representative clinical isolates (table 5).
(§7) Legend to Tables: GEN, gentamicin; AMK, amikacin; PLZ, plazomicin; APR, apramycin; AG212, Escherichia coli ATCC25922; AG215, Klebsiella pneumonia; AG220, Pseudomonas aeruginosa ATCC27853; AG225, Acinetobacter baumannii pittii; AG290, Enterobacter cloacae; […], Mycobacterium smegmatis. MICs for AG192 have been determined in the presence of 0.5 μg/mL of ampicillin in the medium to mimic the synergistic effect of aminoglycoside and β-lactam antibiotics combination therapy in the treatment of Enterococcus infections in humans.

[8] = test system: AG215, Klebsiella pneumonia; assay: MIC reference strain AG215; assay type: cell-based; details: reference strain
From the text: as §1, §6, §7

[9] = test system: AG290, Enterobacter cloacae; assay: MIC reference strain AG290; assay type: cell-based; details: reference strain
From the text: as §1, §6, §7

[10] = test system: AG220, Pseudomonas aeruginosa ATCC27853; assay: MIC reference strain AG220; assay type: cell-based
From the text: as §1, §6, §7

[11] = test system: AG225, Acinetobacter baumannii pittii; assay: MIC reference strain AG225; assay type: cell-based; details: reference strain
From the text: as §1, §6, §7

ATCC19977 M. abcessus = assay: MIC reference strain ATCC19977; assay type: cell-based
From the text: as §1, §6

AG001 E. coli WT = assay: Antibacterial activity, clinical isolate AG001; assay type: cell-based; parameters: unit not given here
From the text: as §1, §6

AG055 E. coli WT = assay: Antibacterial activity, clinical isolate AG055; assay type: cell-based; parameters: unit not given here
From the text: as §1, §6

AG003 E. coli AAC(3)-II = assay: Antibacterial activity, clinical isolate AG003; assay type: cell-based; parameters: unit not given here
From the text: as §1, §6

AG173 E. coli AAC(3)-IV = assay: Antibacterial activity, clinical isolate AG173; assay type: cell-based
From the text: as §1, §6

AG163 E. coli APH(3′)-I = assay: Antibacterial activity, clinical isolate AG163; assay type: cell-based; parameters: unit not given here
From the text: as §1, §6

AG038 MRSA = assay: Antibacterial activity, clinical isolate AG038; assay type: cell-based; parameters: unit not given here
From the text: as §1, §6

[12] = test system: AG039 MRSA AAC(6′)-I ANT(4′)-I; assay: Antibacterial activity, clinical isolate AG039; assay type: cell-based
From the text: as §1, §6

[13] = test system: AG042 MRSA AAC(6′)-I ANT(4′)-I APH(2′); assay: Antibacterial activity, clinical isolate AG042; assay type: cell-based; parameters: unit not given here
From the text: as §1, §6

AG031 P. aer. APH(3′)-II = assay: Antibacterial activity, clinical isolate AG031; assay type: cell-based; parameters: unit not given here
From the text: as §1, §6

AG032 P. aer. APH(3′)-II = assay: Antibacterial activity, clinical isolate AG032; assay type: cell-based; parameters: unit not given here
From the text: as §1, §6

[14] = test system: AG033 P. aer. APH(3′)-II AAC(6′)-I; assay: Antibacterial activity, clinical isolate AG033; assay type: cell-based; parameters: unit not given here
From the text: as §1, §6

[15] = test system: Engineered E. coli pH430 WT; assay: Activity, engineered E. coli pH430 WT; assay type: cell-based; parameters: unit not given here; details: wild type
From the text: as §1

[16] = test system: Engineered E. coli AG103 armA; assay: Activity against G1405-methylated 16S-rRNA, E. coli AG103 armA; assay type: cell-based
From the text: as §1

[17] = test system: Engineered E. coli pH424 armA; assay: Activity against G1405-methylated 16S-rRNA, E. coli pH424 armA; assay type: cell-based
From the text: as §1

[18] = test system: Engineered E. coli pH425 rmtB; assay: Activity against G1405-methylated 16S-rRNA, E. coli pH425 rmtB; assay type: cell-based
From the text: as §1

[19] = test system: Engineered E. coli pH426 rmtC; assay: Activity against G1405-methylated 16S-rRNA, E. coli pH426 rmtC; assay type: cell-based
From the text: as §1

[20] = test system: Engineered E. coli pH427 rmtF; assay: Activity against G1405-methylated 16S-rRNA, E. coli pH427 rmtF; assay type: cell-based
From the text: as §1

WT clinical isolates = assay: MIC broth microdilution, WT; assay type: cell-based; details: clinical isolates, IMM Univ. Zurich; wild type
From the text: as §1, §2, §3, §4

isolates carrying apmA = assay: MIC broth microdilution, apmA; assay type: cell-based; details: apmA resistance gene
From the text: as §1, with “2015.). […]” for “2015.).”
as §3, §4

[21] = test system: SZ380, Mycobacterium smegmatis; assay: MIC reference strain SZ380; assay type: cell-based; details: reference strain
From the text: as §1, §6, §7

[22] = test system: E. coli AG153 AAC(3)-II APH(3′)-II rmtB; assay: Activity against G1405-methylated 16S-rRNA, clinical isolate AG153; assay type: cell-based; parameters: unit not given here
From the text: as §1

[23] = test system: K. pneum. AG269 AAC(3)-II AAC(6′)-I rmtB; assay: Activity against G1405-methylated 16S-rRNA, clinical isolate AG269; assay type: cell-based
From the text: as §1

[24] = test system: Enterob. AG302 AAC(3)-II AAC(6′)-I rmtC; assay: Activity against G1405-methylated 16S-rRNA, clinical isolate AG302; assay type: cell-based
From the text: as §1

[25] = test system: A baum. AG227 APH(3′)-I armA; assay: Activity against G1405-methylated 16S-rRNA, clinical isolate AG227; assay type: cell-based
From the text: as §1

SMILES	IC50 (bacterial ribosomes)	IC50 [5]	IC50 [6]	Antibacterial activity AG001 E. coli WT (AG001 E. coli WT)	Antibacterial activity AG055 E. coli WT (AG055 E. coli WT)	Antibacterial activity AG003 E. coli AAC(3)-II (AG003 E. coli AAC(3)-II)	Antibacterial activity AG173 E. coli AAC(3)-IV (AG173 E. coli AAC(3)-IV)	Antibacterial activity AG163 E. coli APH(3′)-I (AG163 E. coli APH(3′)-I)	Antibacterial activity AG038 MRSA (AG038 MRSA)	Antibacterial activity AG039 MRSA AAC(6′)-I ANT(4′)-I [12]	Antibacterial activity AG042 MRSA AAC(6′)-I ANT(4′)-I APH(2′) [13]	Antibacterial activity AG031 P. aer. APH(3′)-II (AG031 P. aer. APH(3′)-II)	Antibacterial activity AG032 P. aer. APH(3′)-II (AG032 P. aer. APH(3′)-II)	Antibacterial activity AG033 P. aer. APH(3′)-II AAC(6′)-I [14]	Activity E. coli pH430 WT [15]	Activity E. coli AG103 armA [16]	Activity E. coli pH424 armA [17]	Activity E. coli pH425 rmtB [18]	Activity E. coli pH426 rmtC [19]	Activity E. coli pH427 rmtF [20]	other results
CNC1C(OC2OC(CO)C(N)C(O)C2O)OC2CC(N)C(OC3C(N)CC(N)C(O)C3OC3OC(CO)C(O)C3O)OC2C1O [DC131, 5-O—(β-D-Ribefuranosyl) apramycin]	0.11 µM	295 µM	319 µM	16	16-32	16	16-32	8-16	64	64	64	64-128	64-128	128	4	1	2	4	4	4	activity against the IMM clinical isolates carrying the gene for AAC(3)-IV [1]: no activity; MIC ([1]; clinical isolates, IMM Univ. Zurich, AAC(3)-IV, read-out: MIC AAC(3)-IV): > 32 mg/L; MIC [2]: 64 mg/L (≈ 95.3 µM); MIC [3]: 8 mg/L (≈ 11.9 µM); MIC [4]: 4 mg/L (≈ 5.96 µM); MIC ([7]; Escherichia coli, read-out: MIC AG212 E. coli): 8 mg/L; MIC ([8]; Klebsiella pneumoniae, read-out: MIC AG215 K. pneumonia): 2 mg/L; MIC ([9]; Enterobacter cloacae, read-out: MIC AG290 E. cloacae): 4 mg/L; MIC ([10]; Pseudomonas aeruginosa, ATCC27853, reference strain ATCC27853, read-out: MIC AG220 P. aeruginosa): 64 mg/L; MIC ([11]; Acinetobacter baumannii, read-out: MIC AG225 A. baumannii): 16 mg/L; MIC (ATCC19977 M. abcessus; read-out: MIC ATCC19977 M. abcessus): 16 mg/L (≈ 23.8 µM)
CNC1C(OC2OC(CO)C(N)C(O)C2O)OC2CC(N)C(OC3C(N)CC(NC(=O)C(O)CCN)C(O)C3O)OC2C1O (centres unmarked) [DC176]	0.11 µM	166 µM	326 µM	4	8	4	2-4	4	4-8	4-8	8	16	32	>32	2	0.25-0.5	2	2	4	4	MIC WT (WT clinical isolates): 2 mg/L (≈ 3.12 µM); MIC AAC(3)-IV ([1]; clinical isolates, IMM Univ. Zurich, AAC(3)-IV): 4 mg/L (≈ 6.24 µM); MIC apmA (isolates carrying apmA): 16 mg/L (≈ 25 µM); MIC AG212 E. coli [7]: 2 to 4 mg/L; MIC AG215 K. pneumonia [8]: 2 mg/L; MIC AG290 E. cloacae [9]: 4 mg/L; MIC AG220 P. aeruginosa ([10]; reference strain ATCC27853): 16 mg/L; MIC AG225 A. baumannii [11]: 8 mg/L; MIC SZ380 M. smegmatis [21]: 0.5 mg/L; MIC ATCC19977 M. abcessus (ATCC19977 M. abcessus; reference strain): 2 mg/L (≈ 3.12 µM); Activity E. coli AG153 AAC(3)-II APH(3′)-II rmtB [22]: 4; Activity K. pneum. AG269 AAC(3)-II AAC(6′)-I rmtB [23]: 2; Activity Enterob. AG302 AAC(3)-II AAC(6′)-I rmtC [24]: 2; Activity A baum. AG227 APH(3′)-I armA [25]: 2

— patent publication US11485751B2, “Apramycin derivatives” (WAYNE STATE UNIVERSITY, priority 2017, dated 2022)
